Measurements as given in patent publication US10758534B2 (Vertex Pharmaceuticals Incorporated, priority 2014, dated 2020).

biological target: T1, F508del (Homo sapiens, UniProt P13569, DEL508-508); assay: Protocol 1: membrane potential optical assay (FLIPR III, voltage sensing dye), identification of potentiator compounds; assay type: cell-based; conditions: Table 3, compounds of Table 1
T1 construct: expressed in transfected cells
Summary of the method: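 Read-out: change in voltage-sensing dye fluorescence (FLIPR III) as a measure of F508del conductance. Temperature-corrected (27° C, 24 hrs) NIH 3T3 cells expressing F508del are pretreated with potentiators, dye-loaded, then stimulated with forskolin under a chloride ion gradient using chloride-free gluconate bath.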

T1 sequence (P13569 with tags, fused parts or gaps DEL508-508): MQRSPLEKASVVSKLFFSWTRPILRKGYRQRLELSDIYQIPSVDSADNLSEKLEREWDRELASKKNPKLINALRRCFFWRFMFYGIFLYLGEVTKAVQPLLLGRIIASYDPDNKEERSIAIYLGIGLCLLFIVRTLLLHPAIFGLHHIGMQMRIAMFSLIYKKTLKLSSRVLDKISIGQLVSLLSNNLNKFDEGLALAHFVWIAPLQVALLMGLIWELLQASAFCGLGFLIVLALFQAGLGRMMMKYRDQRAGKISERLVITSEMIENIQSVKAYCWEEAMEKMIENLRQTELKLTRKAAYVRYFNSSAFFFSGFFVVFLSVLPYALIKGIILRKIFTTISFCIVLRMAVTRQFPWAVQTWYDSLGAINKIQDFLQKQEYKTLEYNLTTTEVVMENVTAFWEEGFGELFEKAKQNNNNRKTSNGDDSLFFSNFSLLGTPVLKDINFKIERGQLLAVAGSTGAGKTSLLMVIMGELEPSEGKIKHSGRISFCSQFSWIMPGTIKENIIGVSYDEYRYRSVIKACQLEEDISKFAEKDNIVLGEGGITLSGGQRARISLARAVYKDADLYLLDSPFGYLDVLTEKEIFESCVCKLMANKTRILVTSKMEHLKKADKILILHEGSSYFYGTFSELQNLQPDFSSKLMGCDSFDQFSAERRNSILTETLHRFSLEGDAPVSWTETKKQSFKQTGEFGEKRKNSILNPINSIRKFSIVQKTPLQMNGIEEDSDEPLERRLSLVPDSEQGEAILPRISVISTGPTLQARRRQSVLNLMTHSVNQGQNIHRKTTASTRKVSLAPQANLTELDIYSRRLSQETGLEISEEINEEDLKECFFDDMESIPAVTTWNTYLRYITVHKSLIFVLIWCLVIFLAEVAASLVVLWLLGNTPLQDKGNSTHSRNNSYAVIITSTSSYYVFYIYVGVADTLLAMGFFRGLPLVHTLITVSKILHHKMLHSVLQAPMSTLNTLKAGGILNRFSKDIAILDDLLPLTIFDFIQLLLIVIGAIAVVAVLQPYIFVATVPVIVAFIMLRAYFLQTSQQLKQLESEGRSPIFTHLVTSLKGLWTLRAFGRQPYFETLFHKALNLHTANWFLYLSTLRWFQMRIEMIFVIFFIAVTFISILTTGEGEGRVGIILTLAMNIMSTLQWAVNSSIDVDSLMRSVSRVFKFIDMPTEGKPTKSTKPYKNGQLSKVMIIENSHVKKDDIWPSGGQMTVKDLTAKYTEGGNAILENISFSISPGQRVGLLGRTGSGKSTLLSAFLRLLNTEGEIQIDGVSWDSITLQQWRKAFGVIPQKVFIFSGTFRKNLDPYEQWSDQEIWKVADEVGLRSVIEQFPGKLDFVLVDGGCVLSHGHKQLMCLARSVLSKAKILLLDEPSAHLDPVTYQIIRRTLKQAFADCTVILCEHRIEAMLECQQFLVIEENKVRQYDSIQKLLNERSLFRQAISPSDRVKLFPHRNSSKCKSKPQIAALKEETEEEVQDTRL

Structure (SMILES)	EC30
CC(C)Cc1ccc(C(=O)NS(=O)(=O)c2cccc(N)n2)c(N2C[C@@H](C)CC2(C)C)n1 [Compound 1599, N-[(6-amino-2-pyridyl)sulfonyl]-6-isobutyl-2-[(4S)-2,2,4-trimethylpyrrolidin-1-yl]pyridine-3-carboxamide]	+++ (“+++” means <3 uM)
CC(C)COc1cc(F)cc(-c2ccc(C(=O)NS(=O)(=O)c3ccc(OCc4ccccc4)c(N)n3)c(N3C[C@@H](C)CC3(C)C)n2)c1 [Compound 1429, N-[(6-amino-5-benzyloxy-2-pyridyl)sulfonyl]-6-(3-fluoro-5-isobutoxy-phenyl)-2-[(4S)-2,2,4-trimethylpyrrolidin-1-yl]pyridine-3-carboxamide]	+++ (“+++” means <3 uM)
Cc1cc(C)c(Oc2nc(C3CCC(C)(C)CC3)ccc2C(=O)NS(=O)(=O)c2ccc[nH]c2=O)c(C)c1 [Compound 1091, 6-(4,4-dimethylcyclohexyl)-N-[(2-oxo-1H-pyridin-3-yl)sulfonyl]-2-(2,4,6-trimethylphenoxy)pyridine-3-carboxamide]	+++ (“+++” means <3 uM)
Cc1cc(C)c(Oc2nc(-c3cccc(C#N)c3)ccc2C(=O)NS(=O)(=O)c2cccc(N)n2)c(C)c1 [Compound 886, N-[(6-amino-2-pyridyl)sulfonyl]-6-(3-cyanophenyl)-2-(2,4,6-trimethylphenoxy)pyridine-3-carboxamide]	+++ (“+++” means <3 uM)
CC(C)COc1cc(F)cc(-c2ccc(C(=O)NS(=O)(=O)c3cccc(N)n3)c(OC(C)c3ccc(F)cc3)n2)c1 (centres unmarked) [Compound 867, N-[(6-amino-2-pyridyl)sulfonyl]-6-(3-fluoro-5-isobutoxy-phenyl)-2-[1-(4-fluorophenyl)ethoxy]pyridine-3-carboxamide]	+++ (“+++” means <3 uM)
CCOCCOCCOc1cc(-c2ccc(C(=O)NS(=O)(=O)c3cccc(N)n3)c(N3C[C@@H](C)CC3(C)C)n2)cc(C)n1 [Compound 1812, N-[(6-amino-2-pyridyl)sulfonyl]-6-[2-[2-(2-ethoxyethoxy)ethoxy]-6-methyl-4-pyridyl]-2-[(4S)-2,2,4-trimethylpyrrolidin-1-yl]pyridine-3-carboxamide]	++ (“++” means between 3 uM and 10 uM)
Cc1ccc(OCC(C)C)nc1-c1ccc(C(=O)NS(=O)(=O)c2cccc(N)n2)c(N2CC(C)CC2(C)C)n1 (centres unmarked) [Compound 1659, N-[(6-amino-2-pyridyl)sulfonyl]-6-(6-isobutoxy-3-methyl-2-pyridyl)-2-(2,2,4-trimethylpyrrolidin-1-yl)pyridine-3-carboxamide]	+++ (“+++” means <3 uM)
CC1CN(c2ncc(-c3cccc(C#N)c3)cc2C(=O)NS(=O)(=O)c2cccc(N)n2)C(C)(C)C1 (centres unmarked) [Compound 1849, N-[(6-amino-2-pyridyl)sulfonyl]-5-(3-cyanophenyl)-2-(2,2,4-trimethylpyrrolidin-1-yl)pyridine-3-carboxamide]	++ (“++” means between 3 uM and 10 uM)
CCc1cccc(-c2ccc(C(=O)NS(=O)(=O)c3cccc(N)n3)c(Oc3c(C)cc(C)cc3C)n2)c1 [Compound 1118, N-[(6-amino-2-pyridyl)sulfonyl]-6-(3-ethylphenyl)-2-(2,4,6-trimethylphenoxy)pyridine-3-carboxamide]	+++ (“+++” means <3 uM)
Cc1ccnc(C)c1Oc1nc(-c2cc(F)cc(OCC(C)C)c2)ccc1C(=O)NS(=O)(=O)c1cccc(N)n1 [Compound 1574, N-[(6-amino-2-pyridyl)sulfonyl]-2-[(2,4-dimethyl-3-pyridyl)oxy]-6-(3-fluoro-5-isobutoxy-phenyl)pyridine-3-carboxamide]	++ (“++” means between 3 uM and 10 uM)
Cc1cc(C)c(Oc2nc(C3=CCCC4(C3)OCCO4)ccc2C(=O)NS(=O)(=O)c2cccc(N)n2)c(C)c1 [Compound 1437, N-[(6-amino-2-pyridyl)sulfonyl]-6-(1,4-dioxaspiro[4.5]dec-8-en-9-yl)-2-(2,4,6-trimethylphenoxy)pyridine-3-carboxamide]	++ (“++” means between 3 uM and 10 uM)
CC(C)Oc1ccc(-c2ccc(C(=O)NS(=O)(=O)c3cccc(N)n3)c(N3C[C@H](C)CC3(C)C)n2)cn1 [Compound 949, N-[(6-amino-2-pyridyl)sulfonyl]-6-(6-isopropoxy-3-pyridyl)-2-[(4R)-2,2,4-trimethylpyrrolidin-1-yl]pyridine-3-carboxamide]	+++ (“+++” means <3 uM)
Cc1cc(C)c(Oc2nc(-c3cccnc3OC(C)C)ccc2C(=O)NS(=O)(=O)c2cccc(N)n2)c(C)c1 [Compound 909, N-[(6-amino-2-pyridyl)sulfonyl]-6-(2-isopropoxy-3-pyridyl)-2-(2,4,6-trimethylphenoxy)pyridine-3-carboxamide]	+++ (“+++” means <3 uM)
CC(C)COc1cc(F)cc(-c2ccc(C(=O)NS(=O)(=O)c3cccc(N)n3)c(N3CCC[C@H](C)C3)n2)c1 [Compound 1193, N-[(6-amino-2-pyridyl)sulfonyl]-6-(3-fluoro-5-isobutoxy-phenyl)-2-[(3S)-3-methyl-1-piperidyl]pyridine-3-carboxamide]	+++ (“+++” means <3 uM)
Cc1cc(C)c(Oc2nc(N3[C@H](C)CC[C@@H]3C)ccc2C(=O)NS(=O)(=O)c2cccc(N)n2)c(C)c1 [Compound 1494, N-[(6-amino-2-pyridyl)sulfonyl]-6-[(2R,5S)-2,5-dimethylpyrrolidin-1-yl]-2-(2,4,6-trimethylphenoxy)pyridine-3-carboxamide]	+++ (“+++” means <3 uM)
COc1ccc(/C=C/c2cc(C(=O)NS(=O)(=O)c3cccc(N)n3)c(N3C[C@@H](C)CC3(C)C)nc2C(C)(C)C)cc1 [Compound 1535, N-[(6-amino-2-pyridyl)sulfonyl]-6-tert-butyl-5-[(E)-2-(4-methoxyphenyl)vinyl]-2-[(4S)-2,2,4-trimethylpyrrolidin-1-yl]pyridine-3-carboxamide]	+++ (“+++” means <3 uM)
Cc1cc(C)c(Oc2nc(-n3cc(C)cn3)ccc2C(=O)NS(=O)(=O)c2cccc(N)n2)c(C)c1 [Compound 1220, N-[(6-amino-2-pyridyl)sulfonyl]-6-(4-methylpyrazol-1-yl)-2-(2,4,6-trimethylphenoxy)pyridine-3-carboxamide]	+++ (“+++” means <3 uM)
Cc1nc(OC(C)C)ccc1-c1ccc(C(=O)NS(=O)(=O)c2cccc(N)n2)c(N2CC(C)CC2(C)C)n1 (centres unmarked) [Compound 814, N-[(6-amino-2-pyridyl)sulfonyl]-6-(6-isopropoxy-2-methyl-3-pyridyl)-2-(2,2,4-trimethylpyrrolidin-1-yl)pyridine-3-carboxamide]	+++ (“+++” means <3 uM)
COc1ncccc1S(=O)(=O)NC(=O)C1CCc2ccccc2CN1Cc1c(C)cc(C)cc1C (centres unmarked) [Compound 1342, N-[(2-methoxy-3-pyridyl)sulfonyl]-2-[(2,4,6-trimethylphenyl)methyl]-1,3,4,5-tetrahydro-2-benzazepine-3-carboxamide]	+++ (“+++” means <3 uM)
CCc1cccc2c(C(=O)NS(=O)(=O)c3cccc(N)n3)n(Cc3c(C)cc(C)cc3C)nc12 [Compound 1086, N-[(6-amino-2-pyridyl)sulfonyl]-7-ethyl-2-[(2,4,6-trimethylphenyl)methyl]indazole-3-carboxamide]	++ (“++” means between 3 uM and 10 uM)
CC1CN(c2nc(C(C)(C)C)ccc2C(=O)NS(=O)(=O)c2cccc(N)n2)C(C)(C)C1 (centres unmarked) [Compound 1511]	+++ (“+++” means <3 uM)
CC(C)COc1cccc(-c2ccc(C(=O)NS(=O)(=O)c3cccc(N)n3)c(N3CCCC3(C)C)n2)n1 [Compound 1011, N-[(6-amino-2-pyridyl)sulfonyl]-2-(2,2-dimethylpyrrolidin-1-yl)-6-(6-isobutoxy-2-pyridyl)pyridine-3-carboxamide]	+++ (“+++” means <3 uM)
Cc1cc(C)c(Oc2nc(C)ccc2C(=O)NS(=O)(=O)c2cccc(N)n2)c(C)c1 [Compound 1137, N-[(6-amino-2-pyridyl)sulfonyl]-6-methyl-2-(2,4,6-trimethylphenoxy)pyridine-3-carboxamide]	++ (“++” means between 3 uM and 10 uM)
CC(C)Oc1ccc(-c2ccc(C(=O)NS(=O)(=O)c3ccc[nH]c3=O)c(N3C[C@@H](C)CC3(C)C)n2)cc1 [Compound 1774, 6-(4-isopropoxyphenyl)-N-[(2-oxo-1H-pyridin-3-yl)sulfonyl]-2-[(4S)-2,2,4-trimethylpyrrolidin-1-yl]pyridine-3-carboxamide]	+++ (“+++” means <3 uM)
Cc1cccc(C)c1Cn1nc(-c2cnc(N(C)C)nc2)cc1C(=O)NS(=O)(=O)c1ccccc1 [Compound 1678, N-(benzenesulfonyl)-5-[2-(dimethylamino)pyrimidin-5-yl]-2-[(2,6-dimethylphenyl)methyl]pyrazole-3-carboxamide]	+ (“+” means greater than 10 uM)
CC1CN(c2nc(-c3ccc(Cl)cc3)ccc2C(=O)NS(=O)(=O)c2cccc(N)n2)C(C)(C)C1 (centres unmarked) [Compound 1100, N-[(6-amino-2-pyridyl)sulfonyl]-6-(4-chlorophenyl)-2-(2,2,4-trimethylpyrrolidin-1-yl)pyridine-3-carboxamide]	+++ (“+++” means <3 uM)
Cc1cc(C)c(Oc2nc(C3CCC(C(F)(F)F)CC3)ccc2C(=O)NS(=O)(=O)c2cccc(N)n2)c(C)c1 (centres unmarked) [Compound 1519, N-[(6-amino-2-pyridyl)sulfonyl]-6-[4-(trifluoromethyl)cyclohexyl]-2-(2,4,6-trimethylphenoxy)pyridine-3-carboxamide]	+++ (“+++” means <3 uM)
Cc1cc(C)c(Oc2nc(-c3ccccn3)ccc2C(=O)NS(=O)(=O)c2cc[nH]n2)c(C)c1 [Compound 1353, N-(1H-pyrazol-3-ylsulfonyl)-6-(2-pyridyl)-2-(2,4,6-trimethylphenoxy)pyridine-3-carboxamide]	+ (“+” means greater than 10 uM)
Cc1cc(C)c(Oc2nc(C3=CCCCC3)ccc2C(=O)NS(=O)(=O)c2ccc[nH]c2=O)c(C)c1 [Compound 882, 6-(cyclohexen-1-yl)-N-[(2-oxo-1H-pyridin-3-yl)sulfonyl]-2-(2,4,6-trimethylphenoxy)pyridine-3-carboxamide]	+++ (“+++” means <3 uM)
